Experimental data: US10676465B2, “GLP-1 receptor agonists and uses thereof” (Pfizer Inc., priority 2018, dated 2020)
Read-outs that look alike come from different tables or passages of the source.

Columns and labels:
[1] = target: human GLP-1R (Homo sapiens, UniProt P43220, G168S); assay: CHO GLP-1R Clone H6 - Assay 1 (HTRF cAMP agonist assay); format: cell-based; settings: for EC50: CHO GLP-1R Clone H6, cAMP HTRF, geometric mean
Description: GLP-1R-mediated agonist activity was determined with a cell-based functional assay utilizing an HTRF (Homogeneous Time-Resolved Fluorescence) cAMP detection kit (cAMP HI Range Assay Kit; CisBio cat #62AM6PEJ) that measures cAMP levels in the cell. The method is a competitive immunoassay between native cAMP produced by the cells and exogenous cAMP labeled with the dye d2. The tracer binding is visualized by a mAb anti-cAMP labeled with Cryptate. The specific signal (i.e. energy transfer) is inversely proportional to the concentration of cAMP in either standard or experimental sample.
The human GLP-1R coding sequence (NCBI Reference Sequence NP_002053.3, including naturally-occurring variant Gly168Ser) was subcloned into pcDNA3 (Invitrogen) and a cell line stably expressing the receptor was isolated (designated Clone H6).
Cells were removed from cryopreservation, re-suspended in 40 mL of Dulbecco's Phosphate Buffered Saline (DPBS—Lonza Cat #17-512Q) and centrifuged at 800×g for 5 minutes at 22° C. The cell pellet was then re-suspended in 10 mL of growth medium [DMEM/F12 1:1 Mixture with HEPES, L-Gln, 500 mL (DMEM/F12 Lonza Cat #12-719F), 10% heat inactivated fetal bovine serum (Gibco Cat #16140-071), 5 mL of 100× Pen-Strep (Gibco Cat #15140-122), 5 mL of 100×L-Glutamine (Gibco Cat #25030-081) and 500 μg/mL Geneticin (G418) (Invitrogen #10131035)]. A 1 mL sample of the cell suspension in growth media was counted on a Becton Dickinson ViCell to determine cell viability and cell count per mL. The remaining cell suspension was then adjusted with growth media to deliver 2000 viable cells per well using a Matrix Combi Multidrop reagent dispenser, and the cells were dispensed into a white 384 well tissue culture treated assay plate (Corning 3570). The assay plate was then incubated for 48 hours at 37° C. in a humidified environment in 5% carbon dioxide.
Varying concentrations of each compound to be tested (in DMSO) were diluted in assay buffer (HBSS with Calcium/Magnesium (Lonza/BioWhittaker cat #10-527F)/0.1% BSA (Sigma Aldrich cat # A7409-1L)/20 mM HEPES (Lonza/BioWhittaker cat #17-737E) containing 100 μM 3-isobutyl-1-methylxanthin (IBMX; Sigma cat #15879). The final DMSO concentration is 1%.
After 48 hours, the growth media was removed from the assay plate wells, and the cells were treated with 20 μL of the serially diluted compound in assay buffer for 30 minutes at 37° C. in a humidified environment in 5% carbon dioxide. Following the 30 minute incubation, 10 μL of labeled d2 cAMP and 10 μL of anti-cAMP antibody (both diluted 1:20 in cell lysis buffer; as described in the manufacturer's assay protocol) were added to each well of the assay plate. The plates were then incubated at room temperature and after 60 minutes, changes in the HTRF signal were read with an Envision 2104 multi-label plate reader using excitation of 330 nm and emissions of 615 and 665 nm. Raw data were converted to nM cAMP by interpolation from a cAMP standard curve (as described in the manufacturer's assay protocol) and the percent effect was determined relative to a saturating concentration of the full agonist GLP-17-36 (1 μM) included on each plate. EC50 determinations were made from agonist dose-response curves analyzed with a curve fitting program using a 4-parameter logistic dose response equation.

[2] = target: human GLP-1R (Homo sapiens (Human), UniProt P43220, L260F); assay: CHO GLP-1R Clone C6 - Assay 2 (HTRF cAMP agonist assay, low receptor density); settings: for EC50: cAMP HTRF, geometric mean; for Emax: read-out: Assay 2 Emax (%), CHO GLP-1R Clone C6 (low receptor density)
Sequence of human GLP-1R (Homo sapiens (Human), UniProt P43220, L260F) (P43220 24-463 L260F): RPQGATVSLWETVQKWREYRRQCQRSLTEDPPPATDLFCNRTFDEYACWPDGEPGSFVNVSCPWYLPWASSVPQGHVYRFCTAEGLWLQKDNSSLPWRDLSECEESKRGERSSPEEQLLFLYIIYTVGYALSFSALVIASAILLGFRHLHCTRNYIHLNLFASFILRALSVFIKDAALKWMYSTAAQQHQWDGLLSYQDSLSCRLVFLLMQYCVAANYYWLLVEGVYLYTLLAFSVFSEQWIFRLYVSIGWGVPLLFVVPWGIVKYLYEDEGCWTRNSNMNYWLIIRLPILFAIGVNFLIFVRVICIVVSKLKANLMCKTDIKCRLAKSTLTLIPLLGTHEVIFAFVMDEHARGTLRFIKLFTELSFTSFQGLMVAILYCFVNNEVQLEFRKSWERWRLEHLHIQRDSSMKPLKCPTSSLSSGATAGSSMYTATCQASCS
Description: CHO GLP-1R Clone C6—Assay 2
GLP-1R-mediated agonist activity was determined with a cell-based functional assay utilizing an HTRF (Homogeneous Time-Resolved Fluorescence) cAMP detection kit (cAMP HI Range Assay Kit; Cis Bio cat #62AM6PEJ) that measures cAMP levels in the cell. The method is a competitive immunoassay between native cAMP produced by the cells and exogenous cAMP labeled with the dye d2. The tracer binding is visualized by a mAb anti-cAMP labeled with Cryptate. The specific signal (i.e. energy transfer) is inversely proportional to the concentration of cAMP in either a standard or an experimental sample.
The human GLP-1R coding sequence (NCBI Reference Sequence NP_002053.3, including naturally-occurring variant Leu260Phe) was subcloned into pcDNA5-FRT-TO and a clonal CHO cell line stably expressing a low receptor density was isolated using the Flp-In™ T-Rex™ System, as described by the manufacturer (ThermoFisher).
Cells were removed from cryopreservation, re-suspended in 40 mL of Dulbecco's Phosphate Buffered Saline (DPBS—Lonza Cat #17-512Q) and centrifuged at 800×g for 5 minutes at 22° C. The DPBS was aspirated, and the cell pellet was re-suspended in 10 mL of complete growth medium (DMEM:F12 1:1 Mixture with HEPES, L-Gln, 500 mL (DMEM/F12 Lonza Cat #12-719F), 10% heat inactivated fetal bovine serum (Gibco Cat #16140-071), 5 mL of 100× Pen-Strep (Gibco Cat #15140-122), 5 mL of 100×L-Glutamine (Gibco Cat #25030-081), 700 μg/mL Hygromycin (Invitrogen Cat #10687010) and 15 μg/mL Blasticidin (Gibco Cat # R21001). A 1 mL sample of the cell suspension in growth media was counted on a Becton Dickinson ViCell to determine cell viability and cell count per mL. The remaining cell suspension was then adjusted with growth media to deliver 1600 viable cells per well using a Matrix Combi Multidrop reagent dispenser, and the cells were dispensed into a white 384 well tissue culture treated assay plate (Corning 3570). The assay plate was then incubated for 48 hours at 37° C. in a humidified environment (95% O2, 5% CO2)
Varying concentrations of each compound to be tested (in DMSO) were diluted in assay buffer [HBSS with Calcium/Magnesium (Lonza/BioWhittaker cat #10-527F)/0.1% BSA (Sigma Aldrich cat # A7409-1L)/20 mM HEPES (Lonza/BioWhittaker cat #17-737E)] containing 100 μM 3-isobutyl-1-methylxanthin (IBMX; Sigma cat #15879). The final DMSO concentration in the compound/assay buffer mixture is 1%.
After 48 hours, the growth media was removed from the assay plate wells, and the cells were treated with 20 μL of the serially diluted compound in assay buffer for 30 minutes at 37° C. in a humidified environment (95% O2, 5% CO2). Following the 30 minute incubation, 10 μL of labeled d2 cAMP and 10 μL of anti-cAMP antibody (both diluted 1:20 in cell lysis buffer; as described in the manufacturer's assay protocol) were added to each well of the assay plate. The plates were then incubated at room temperature and after 60 minutes, changes in the HTRF signal were read with an Envision 2104 multi-label plate reader using excitation of 330 nm and emissions of 615 and 665 nm. Raw data were converted to nM cAMP by interpolation from a cAMP standard curve (as described in the manufacturer's assay protocol) and the percent effect was determined relative to a saturating concentration of the full agonist GLP-1 (1 μM) included on each plate. EC50 determinations were made from agonist dose response curves analyzed with a curve fitting program using a 4-parameter logistic dose response equation.

[3] = CHO GLP-1R Clone H6, arithmetic mean, relative to saturating GLP-1 (1 μM)
[4] = Assay 2 EC50 (nM), CHO GLP-1R Clone C6 (low receptor density)
[5] = arithmetic mean, relative to saturating GLP-1 (1 μM)

Sequence of human GLP-1R (Homo sapiens, UniProt P43220, G168S) (P43220 24-463 G168S limits assumed): as the sequence (P43220 24-463 L260F) above, with G145S, F237L counted along it

EC50 [1] [nM]	Assay 1 Emax (%) [1, 3] [%]	EC50 [2, 4] [nM]	Assay 2 Emax (%) ([2]; CHO GLP-1R Clone C6 (low receptor density), arithmetic mean, relative to saturating GLP-1 (1 μM))	Emax [1, 3] [%]	Emax [2, 5] [%]	EC50 ([2]; read-out: Assay 2 EC50, CHO GLP-1R Clone C6 (low receptor density)) [nM]	SMILES
73	88	1600	90	–	–	–	CC1(c2ccc(C#N)cc2F)Oc2cccc(C3CCN(Cc4nc5ccc(C(=O)O)cc5n4C[C@@H]4CCO4)CC3)c2O1 (single isomer, unassigned) [Example 9]
1.1	–	11	–	85	93	–	CC1(c2ccc(Cl)cc2F)Oc2c(F)ccc(C3CCN(Cc4nc5ccc(C(=O)O)cc5n4C[C@@H]4CCO4)CC3)c2O1 (single isomer, unassigned) [Example 96]
1.7	–	–	–	98	100	10	CC1(c2ccc(Cl)cc2F)Oc2cccc(C3CCN(Cc4nc5ccc(C(=O)O)cc5n4Cc4cn[nH]c4)CC3)c2O1 (stereo not drawn) [Example 73, 2-({4-[2-(4-chloro-2-fluorophenyl)-2-methyl-1,3-benzodioxol-4-yl]piperidin-1-yl}methyl)-1-(1H-pyrazol-4-ylmethyl)-1H-benzimidazole-6-carboxylic acid]
